This note sets out measurements from patent publication US10857136B2, “Compounds for use in the prevention and/or treatment of non-alcoholic fat liver disease and non-alcoholic steatohepatitis” (SJT MOLECULAR RESEARCH, SL, priority 2017, dated 2020).

Holding throughout (type): in vivo
Assay [1] concerns DIO mice (C57Bl/6J male mice). Nature of the assay: Insulin resistance (HOMA-IR), 36 days assay in DIO mice. Particulars: 50 mg/kg orally twice daily for 36 days, days 1, 8, 15, 22, 29 and 36, vs saline control, similar to metformin 150 mg/kg. The method, then: To assess the performance of the compounds disclosed in decreasing insulin resistance, DIO mice (C57Bl/6J male mice) were treated with hydrochloride salts of compounds 4a, 5a; and with compound 7a during 36 days, versus a control treated with saline (0.9% NaCl) and versus DIO mice treated with metformin as a positive control.
(§1) For the assessment, 60 C57Bl/6 J male mice (16-week-old at delivery and 40 g of average weight), obtained from Charles River France put on high fat diet for 10 weeks. The animals were housed in ventilated and enriched housing cages (310×125×127 mm^3) throughout the experimental phase. Animals' cages litters were changed at least once a week. Mice were housed in groups of 10 mice on a normal 12 hours light cycle (at 08:00 pm lights were switched off), at 22±2° C. and 50±10% relative humidity. After reception, mice were maintained for three additional acclimation weeks. During the whole test (acclimation+treatment phase) a high fat diet (D12492 purchased from Research Diet Inc.; 60% fat) and tap water were provided ad libitum.
After the acclimation period, mice were fasted for 6 hours and blood glucose and plasma insulin were measured. Ten animals, those with lower blood glucose/plasma insulin, were discarded from the study. […]
Body weight were weekly measured as well as blood glucose and plasma insulin after a 6 hour-fasting.
Blood glucose was measured by sampling blood from the tip of the tail: a drop of blood is collected and placed on a glucometer strip (Accu-Check® glucometer, Roche, Switzerland). Plasma insulin was detected via ELISA (Elisa Kit, Eurobio, France) using 5 μl samples.
The Homeostatic model assessment-insulin resistance index (HOMA-IR), which is used to quantify insulin resistance, was calculated from fasting blood glucose, and plasma insulin values as follows: HOMA-IR=(mM glucose×μU/mL insulin)/22.5, being this constant a normalizing factor (Matthews et al., 1985, Diabetologia 28(7), 412-9).

Assay [2] has as its system DIO mice (C57Bl/6J male mice). Nature of the assay: Liver weight, 36 days assay in DIO mice. Particulars: 50 mg/kg orally twice daily, after 36 days, vs saline control and metformin 150 mg/kg. As for the experimental part: To assess the performance of the compounds disclosed decreasing liver overweight, DIO mice (C57Bl/6J male mice) were treated with compounds 4a and 5a during 36 days, versus a control of DIO mice treated with vehicle (0.9% NaCl) and DIO mice treated with Metformin as a positive control.
as §1, with “C57Bl/6J” for “C57Bl/6 J”, “France, were” for “France”, “(D12492;” for “(D12492”, “Inc” for “Inc.;”
After the acclimation period, mice were fasted for 6 hours and blood glucose and plasma insulin were measured. Ten animals, those with lower blood glucose/plasma insulin, were discarded from the study. Then, the others were randomized into 5 homogenous groups (n=10 mice per group) according to their blood glucose/plasma insulin levels (HOMA-IR) and body weight. […]

Assay [3] deals with DIO mice (C57Bl/6 J male mice). Nature of the assay: Liver lipid content, 36 days assay in DIO mice (colorimetric kits). The note with it: 50 mg/kg orally twice daily, after 36 days, vs saline control. The method, then: To assess the performance of the compounds disclosed in decreasing hepatic lipid content, DIO mice (C57Bl/6 J male mice) were treated with a hydrochloride salt of compound 4a; and with compound 7a during 36 days, versus a control of DIO mice treated with saline (0.9% NaCl) and versus DIO mice treated with Metformin as a positive control.
as §1, with “France, were” for “France”, “assessment” for “test”, “Inc;” for “Inc.;”
After the acclimation period, mice were fasted for 6 hours and blood glucose and plasma insulin were measured. Ten animals, those with lower blood glucose/plasma insulin, were discarded from the study. Then, the others were randomized into 5 homogenous groups (n=10 mice per group) according to their blood glucose/plasma insulin levels (HOMA-IR) and body weight. Mice were treated orally twice daily for 36 days with either saline solution (control group), SJT test compound (4a, 7a; 50 mg/kg) or metformin (150 mg/kg).
Finally, mice were sacrificed, and liver was collected, weighted and stored at −80° C. for additional analysis. Liver samples were dissected for liver lipids assay. Liver lipids were assayed using colorimetric commercial assay kits, from liver samples homogenate after lipid solubilization in deoxycholate as described by Miao et al., J Lipid Res, 2004, 45, 1410-17. Samples were homogenized with an ultrasound probe with 500 μl distilled water during few seconds. Then cholic acid at 1% is added to make lipids soluble. The measurement of the different lipids was then performed using colorimetric kits from Sobioda, France.

The structures appear in SMILES notation.

For `COc1ccc(-c2nc(C(=O)NCCCN)cc3c2[nH]c2ccccc23)cc1` [Compound 5a, N(-propylamine)-1-benzosubstituted-β-carboline-3-carboxamide], the “insulin resistance (HOMA-IR)” value in assay [1] was “lower insulin resistance compared to the control animals”. For the same molecule, the “liver weight (liver overweight)” value in assay [2] is “lower liver weight than either mice treated with metformin or than the control animals”.
For `COc1ccc(-c2nc(C(=O)N/N=C/c3ccccc3)cc3c2[nH]c2ccccc23)cc1` [Compound 7a, 3-(carbohydrazyl-N′-phenylsubstitute)-1-benzosubstitute-β-carbolinic-3-carbohydrazide], in assay [1], the “insulin resistance (HOMA-IR)” value is reported as “lower insulin resistance compared to the control animals”. Further, in assay [3], the hepatic cholesterol entry is given as “lower lipid levels than untreated control animals”, the hepatic fatty acids result is “lower lipid levels than untreated control animals” and the hepatic triglycerides entry is reported as “lower lipid levels than untreated control animals”.
